Assay results from PMC2430034, “Structural Development Studies of Subtype-Selective Ligands for Peroxisome Proliferator-Activated Receptors (PPARs) Based on the 3,4-Disubstituted Phenylpropanoic Acid Scaffold as a Versatile Template” (PPAR Research, 2008).
Where two headings read alike, the source gives them in different places.

Legend:
Type in all cases: cell-based
[1] = biological target: T1, PPARα (Homo sapiens, UniProt Q07869); assay: PPARα-GAL4 chimeric receptor transactivation in CHO-K1 cells; details: for EC50: read-out: Transactivation activity EC50 PPARα; for Transactivation activity EC50 PPARα: PPAR-GAL4 chimeric receptors, transiently transfected CHO-K1 cells, ia = inactive at 10 μM
T1 sequence (Q07869 200-468 limits assumed): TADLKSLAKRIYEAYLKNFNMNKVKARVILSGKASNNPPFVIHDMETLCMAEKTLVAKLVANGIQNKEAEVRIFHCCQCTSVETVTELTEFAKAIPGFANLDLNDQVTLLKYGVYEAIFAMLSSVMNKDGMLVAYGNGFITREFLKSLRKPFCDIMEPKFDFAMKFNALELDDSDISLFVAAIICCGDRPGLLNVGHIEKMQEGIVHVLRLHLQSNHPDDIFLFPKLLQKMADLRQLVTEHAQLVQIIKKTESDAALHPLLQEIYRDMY

[2] = biological target: T2, PPARδ (Homo sapiens, UniProt Q03181); assay: cell-based; details: PPAR-GAL4 chimeric receptors, transiently transfected CHO-K1 cells, ia = inactive at 10 μM; for EC50: read-out: Transactivation activity EC50 PPARδ
T2 sequence (Q03181 211-441 limits assumed): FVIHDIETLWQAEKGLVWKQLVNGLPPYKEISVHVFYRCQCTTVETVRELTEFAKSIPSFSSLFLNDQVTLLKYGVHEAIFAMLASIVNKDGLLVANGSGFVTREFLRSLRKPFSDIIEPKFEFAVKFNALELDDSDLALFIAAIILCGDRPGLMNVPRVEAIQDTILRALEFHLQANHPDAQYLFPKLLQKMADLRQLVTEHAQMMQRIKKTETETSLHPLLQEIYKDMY

[3] = biological target: T3, PPARγ (Homo sapiens, UniProt P37231); assay: cell-based; details: PPAR-GAL4 chimeric receptors, transiently transfected CHO-K1 cells, ia = inactive at 10 μM
T3 sequence (P37231 232-505 limits assumed): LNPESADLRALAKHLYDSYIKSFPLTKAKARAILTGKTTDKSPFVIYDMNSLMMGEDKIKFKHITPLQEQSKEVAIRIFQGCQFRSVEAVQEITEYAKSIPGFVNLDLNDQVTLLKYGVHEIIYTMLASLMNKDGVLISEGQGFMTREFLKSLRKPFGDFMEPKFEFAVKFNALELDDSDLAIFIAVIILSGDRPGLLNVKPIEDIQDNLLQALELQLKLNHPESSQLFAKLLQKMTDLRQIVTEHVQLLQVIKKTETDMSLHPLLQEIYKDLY

[4] = biological target: T1, PPARα; assay: PPARα-GAL4 chimeric receptor transactivation in HEK-293 cells; details: PPAR-GAL4 chimeric receptors, transiently transfected HEK-293 cells; ia = inactive at 10 μM
[5] = biological target: T4, PPARδ (Homo sapiens, UniProt Q03181); assay: cell-based; details: PPAR-GAL4 chimeric receptors, transiently transfected HEK-293 cells; ia = inactive at 10 μM; read-out: Transactivation activity EC50 PPARδ
T4 sequence (Q03181 171-441 limits assumed): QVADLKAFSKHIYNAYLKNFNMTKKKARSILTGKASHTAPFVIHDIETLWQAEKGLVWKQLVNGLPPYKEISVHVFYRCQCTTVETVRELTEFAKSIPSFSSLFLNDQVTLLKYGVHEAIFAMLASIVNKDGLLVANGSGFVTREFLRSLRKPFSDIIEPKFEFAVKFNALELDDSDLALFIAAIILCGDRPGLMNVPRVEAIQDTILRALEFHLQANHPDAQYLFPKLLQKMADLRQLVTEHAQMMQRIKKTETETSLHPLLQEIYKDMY

[6] = biological target: T5, PPARγ (Homo sapiens, UniProt P37231); assay: cell-based; details: for EC50: read-out: Transactivation activity EC50 PPARγ
T5 sequence (P37231 238-505 limits assumed): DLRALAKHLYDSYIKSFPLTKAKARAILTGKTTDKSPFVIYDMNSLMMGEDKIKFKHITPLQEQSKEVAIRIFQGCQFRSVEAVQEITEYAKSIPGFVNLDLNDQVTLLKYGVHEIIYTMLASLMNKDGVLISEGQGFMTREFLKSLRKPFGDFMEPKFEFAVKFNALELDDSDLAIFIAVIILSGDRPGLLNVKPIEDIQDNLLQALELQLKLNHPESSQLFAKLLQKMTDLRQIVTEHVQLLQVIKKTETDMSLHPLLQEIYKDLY

[7] = PPAR-GAL4 chimeric receptors, transiently transfected HEK-293 cells, ia = inactive at 10 μM

SMILES	EC50 [1] [nM]	Transactivation activity EC50 PPARδ [2]	Transactivation activity EC50 PPARγ [3]	EC50 [4] [nM]	EC50 [5] [nM]	other results
CCC(Cc1ccc(OC)c(C(=O)Nc2ccc(C(F)(F)F)cc2)c1)C(=O)O (stereo not shown) [Compound 24]	6000	ia^(b)	ia	–	–	–
CCC(Cc1ccc(OC)c(C(=O)NCCc2ccc(C(F)(F)F)cc2)c1)C(=O)O (stereo not shown) [Compound 25]	740	–	ia	–	–	EC50 [2]: 1500 nM
CCC(Cc1ccc(OC)c(C(=O)N(C)Cc2ccc(C(F)(F)F)cc2)c1)C(=O)O (stereo not shown) [Compound 26]	–	ia	ia	–	–	Transactivation activity EC50 PPARα [1]: ia
CCC(Cc1ccc(OC)c(NC(=O)Cc2ccc(C(F)(F)F)cc2)c1)C(=O)O (stereo not shown) [Compound 27]	130	ia	ia	–	–	–
CCC(Cc1ccc(OC)c(NC(=O)Nc2ccc(C(F)(F)F)cc2)c1)C(=O)O (stereo not shown) [Compound 28]	–	ia	ia	–	–	Transactivation activity EC50 PPARα [1]: ia
CCC(Cc1ccc(OC)c(CC(=O)Nc2ccc(C(F)(F)F)cc2)c1)C(=O)O (stereo not shown) [Compound 29]	20	ia	ia	–	–	–
CCC(Cc1ccc(OC)c(C(=O)CCc2ccc(C(F)(F)F)cc2)c1)C(=O)O (stereo not shown) [Compound 30]	320	ia	–	–	–	EC50 ([3]; read-out: Transactivation activity EC50 PPARγ): 7400 nM
CCC(Cc1ccc(OC)c(CCCc2ccc(C(F)(F)F)cc2)c1)C(=O)O (stereo not shown) [Compound 31]	860	–	ia	–	–	EC50 [2]: 640 nM
CCC(Cc1ccc(OC)c(OCCc2ccc(C(F)(F)F)cc2)c1)C(=O)O (stereo not shown) [Compound 32]	680	–	ia	–	–	EC50 [2]: 400 nM
CCC(Cc1ccc(OC)c(CNCc2ccc(C(F)(F)F)cc2)c1)C(=O)O (stereo not shown) [Compound 34]	4900	–	ia	–	–	EC50 [2]: 8000 nM
CCC(Cc1ccc(OC)c(CNC(=O)c2ccc(C(F)(F)F)c(F)c2)c1)C(=O)O (stereo not shown) [Compound 39]	–	–	–	11	51	EC50 [6, 7]: 6000 nM
CCC(Cc1ccc(OC)c(CNC(=O)c2ccc(F)c(C(F)(F)F)c2)c1)C(=O)O (stereo not shown) [Compound 40]	–	–	–	250	2000	Transactivation activity EC50 PPARγ [6, 7]: ia^(b)
CC[C@@H](Cc1ccc(OC)c(CNC(=O)c2ccc(C(F)(F)F)c(F)c2)c1)C(=O)O [Compound 42]	–	–	–	12	23	EC50 [6]: 4900 nM
CC[C@H](Cc1ccc(OC)c(CNC(=O)c2ccc(C(F)(F)F)c(F)c2)c1)C(=O)O [Compound 43]	–	–	–	150	840	Transactivation activity EC50 PPARγ [6, 7]: ia^(b)
CCOc1ccc(CC(CC)C(=O)O)cc1CNC(=O)c1ccc(C(F)(F)F)cc1 (stereo not shown) [Compound 50]	–	–	–	12	15	EC50 [6, 7]: 1800 nM
CCC(Cc1ccc(OCc2ccccc2)c(CNC(=O)c2ccc(C(F)(F)F)cc2)c1)C(=O)O (stereo not shown) [Compound 54]	–	–	–	–	110	EC50 [6]: 6200 nM
COc1ccc(CCC(=O)O)cc1CNC(=O)c1ccc(C(F)(F)F)cc1 [Compound 58]	–	–	–	210	3000	–
COc1ccc(CC(C)C(=O)O)cc1CNC(=O)c1ccc(C(F)(F)F)cc1 (stereo not shown) [Compound 59]	–	–	–	19	210	–
COc1ccc(CC2SC(=O)NC2=O)cc1C(=O)NCc1ccc(C(F)(F)F)cc1 (stereo not shown) [KRP-297, reference compound]	–	ia	–	–	–	–
